Results reported in US20090099158A1, “TETRAHYDROISOQUINOLINE COMPOUNDS AS MODULATORS OF THE HISTAMINE H3 RECEPTOR” (priority 2007, published 2009).

Columns and labels:
[1] = biological target: T1, cloned human H3 receptors (Homo sapiens, UniProt Q9Y5N1); experiment: H3 Receptor Binding (Human); settings: cloned human H3 receptors stably expressed in SK-N-MC cells; average of the results obtained
T1 construct: expressed in transfected cells; host or cells: SK-N-MC cells
Experimental: Binding of compounds to the cloned human H3 receptors, stably expressed in SK-N-MC cells, was performed as described by Barbier, A. J. et al. (Br. J. Pharmacol. 2004, 143(5), 649-661). Data for compounds tested in this assay are presented in Table 1 as an average of the results obtained.

human H3 receptor = biological target: T2, human H3 receptor (Homo sapiens, UniProt Q9Y5N1); experiment: Cyclic AMP Accumulation (human H3 receptor); format: cell-based; settings: SK-N-MC cells expressing a reporter construct and the human H3 receptor; average; read-out: Human pA2 (converted)
T2 construct: expressed in transfected cells; host or cells: SK-N-MC sublines with reporter construct
Source text: (§1) Sublines of SK-N-MC cells were created that expressed a reporter construct and either the human or rat H3 receptor. The pA2 values were obtained as described by Barbier et al. (2004). Data for compounds tested in these assays are presented in Table 3, as an average of the results obtained (NT=not tested).

Rat H3 [2] = biological target: T3, Rat H3 (Rattus norvegicus, UniProt Q9QYN8); experiment: Cyclic AMP Accumulation (rat H3 receptor); format: cell-based; design: expressed in transfected cells; host or cells: SK-N-MC sublines with reporter construct; settings: SK-N-MC cells expressing a reporter construct and the rat H3 receptor; average; read-out: Rat pA2 (converted)
Source text: as §1

Rat H3 [3] = biological target: T3, Rat H3; experiment: H3 Receptor Binding (Rat); design: A rat brain without cerebellum (Zivic Laboratories Inc., Pittsburgh, Pa.) was homogenized; tissue Zivic Laboratories Inc; host or cells: rat brain without cerebellum (membranes); settings: rat brain (without cerebellum) membranes; 0.8 nM N-[3H]-α-methylhistamine, 60 min at 25° C.; IC50 converted to Ki; average
Experimental: A rat brain without cerebellum (Zivic Laboratories Inc., Pittsburgh, Pa.) was homogenized in 50 mM Tris-HCl/5 mM EDTA and centrifuged at 1,000 rpm for 5 min. The supernatant was removed and recentrifuged at 15,000 rpm for 30 min. Pellets were rehomogenized in 50 mM Tris/5 mM EDTA (pH 7.4). Membranes were incubated with 0.8 nM N-[^3H]-α-methylhistamine plus/minus test compounds for 60 min at 25° C. and harvested by rapid filtration over GF/C glass fiber filters (pretreated with 0.3% polyethylenimine) followed by four washes with buffer. Nonspecific binding was defined in the presence of 100 μM histamine. Inhibitory concentration (responsible for 50% inhibition of maximal effect, IC50) values were determined by a single site curve-fitting program (GraphPad, San Diego, Calif.) and converted to Ki values based on a N-[^3H]-α-methylhistamine dissociation constant (Kd) of 0.8 nM. Data for compounds tested in this assay are presented in Table 2 as an average of the results obtained.

T1 sequence (Q9Y5N1 whole entry): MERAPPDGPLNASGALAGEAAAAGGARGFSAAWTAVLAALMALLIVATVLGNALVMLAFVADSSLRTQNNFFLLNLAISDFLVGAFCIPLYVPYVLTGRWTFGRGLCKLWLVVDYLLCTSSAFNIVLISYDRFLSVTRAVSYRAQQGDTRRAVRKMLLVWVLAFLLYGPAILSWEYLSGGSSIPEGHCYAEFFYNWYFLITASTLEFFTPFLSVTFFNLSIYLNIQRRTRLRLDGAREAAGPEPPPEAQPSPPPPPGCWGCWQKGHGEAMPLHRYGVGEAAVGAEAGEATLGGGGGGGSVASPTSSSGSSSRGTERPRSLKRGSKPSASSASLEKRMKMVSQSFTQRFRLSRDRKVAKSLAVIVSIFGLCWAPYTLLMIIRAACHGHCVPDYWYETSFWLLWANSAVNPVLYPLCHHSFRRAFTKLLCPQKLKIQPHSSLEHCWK
T2 sequence (Q9Y5N1 whole entry): as above
T3 sequence (Q9QYN8 whole entry): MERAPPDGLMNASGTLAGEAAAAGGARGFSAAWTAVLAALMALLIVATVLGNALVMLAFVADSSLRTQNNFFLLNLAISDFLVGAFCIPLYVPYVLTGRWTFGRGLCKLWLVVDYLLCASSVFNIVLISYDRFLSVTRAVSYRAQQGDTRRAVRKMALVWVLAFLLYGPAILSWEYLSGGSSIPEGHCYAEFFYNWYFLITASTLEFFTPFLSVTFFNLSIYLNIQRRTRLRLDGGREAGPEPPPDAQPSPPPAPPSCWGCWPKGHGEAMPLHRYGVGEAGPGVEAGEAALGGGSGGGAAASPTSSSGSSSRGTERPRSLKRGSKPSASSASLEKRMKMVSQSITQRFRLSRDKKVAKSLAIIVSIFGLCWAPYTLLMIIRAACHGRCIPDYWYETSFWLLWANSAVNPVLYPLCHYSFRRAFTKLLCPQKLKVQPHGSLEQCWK

Ki [1] [nM]	Kb (human H3 receptor) [nM]	Kb (Rat H3 [2]) [nM]	Ki (Rat H3 [3]) [nM]	Structure (SMILES)
5	1.29	2.4	2	O=C(c1ccc2c(c1)CCN(Cc1ccccc1)C2)N1CCN(C2CCC2)CC1 [Example 18, (2-Benzyl-1,2,3,4-tetrahydro-isoquinolin-6-yl)-(4-cyclobutyl-piperazin-1-yl)-methanone]
5	8.51	15.1	135	O=C(c1ccc2c(c1)CCN(C(=O)C1CCCC1)C2)N1CCN(C2CCC2)CC1 [Example 32, [6-(4-Cyclobutyl-piperazine-1-carbonyl)-3,4-dihydro-1H-isoquinolin-2-yl]-cyclopentyl-methanone]
1	0.355	2.88		O=C(c1ccc2c(c1)CCN(C(=O)C1CCCCC1)C2)N1CCCN(C2CCC2)CC1 [Example 40, [6-(4-Cyclobutyl-[1,4]diazepane-1-carbonyl)-3,4-dihydro-1H-isoquinolin-2-yl]-cyclohexyl-methanone]
6	2.82	20.4		CCC(=O)N1CCc2cc(C(=O)N3CCC[C@H]3CN3CCCC3)ccc2C1 [Example 45, (S)-1-[6-(2-Pyrrolidin-1-ylmethyl-pyrrolidine-1-carbonyl)-3,4-dihydro-1H-isoquinolin-2-yl]-propan-1-one]
4	2.82	18.2		CCCC(=O)N1CCc2cc(C(=O)N3CCC[C@H]3CN3CCCC3)ccc2C1 [Example 46, (S)-1-[6-(2-Pyrrolidin-1-ylmethyl-pyrrolidine-1-carbonyl)-3,4-dihydro-1H-isoquinolin-2-yl]-butan-1-one]
